Source: the supplement of paper PMC11061612

Legend:
Experiment in all cases: combination Emax (second highest fraction inhibited in the dose matrix, 72 h); higher = more inhibition; extreme values may be limits of the assay
COLO-679 (Melanoma) = test system: COLO-679 (Melanoma)
Outline: (§1)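 Cell lines in DMEM/F12 or RPMI with 10% FBS were plated in 1536-well plates, held 24 hours at 37°C, 5% CO2, then given two-drug dose matrices for 72 hours (DMSO typically 0.2%). Viability was read by CellTiter-Glo 2.0 luminescence and scaled as inhibition from 0 (vehicle wells) to 1 (blank wells). Combination Emax is the second-highest inhibition in the matrix; Bliss excess is observed combination effect minus expected EA + EB − EA·EB, EA and EB being single-agent effects.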

[1] = test system: Ca-Ski (Cervical Carcinoma)
Outline: as §1

[2] = test system: EFO-21 (Ovarian Carcinoma)
Outline: as §1

[3] = test system: EJM (Plasma Cell Myeloma)
Outline: as §1

EW-1 (Ewing's Sarcoma) = test system: EW-1 (Ewing's Sarcoma)
Outline: as §1

[4] = test system: G-401 (Other Solid Carcinomas)
Outline: as §1

[5] = test system: HAL-01 (B-Lymphoblastic Leukemia)
Outline: as §1

[6] = test system: HCC1500 (Breast Carcinoma)
Outline: as §1

[7] = test system: KGN (Other Solid Carcinomas)
Outline: as §1

[8] = test system: KMRC-1 (Kidney Carcinoma)
Outline: as §1

[9] = test system: KOPN-8 (B-Lymphoblastic Leukemia)
Outline: as §1

[10] = test system: ME-180 (Cervical Carcinoma)
Outline: as §1

[11] = test system: ML-2 (Acute Myeloid Leukemia)
Outline: as §1

[12] = test system: MOLT-4 (T-Lymphoblastic Leukemia)
Outline: as §1

[13] = test system: MV-4-11 (Acute Myeloid Leukemia)
Outline: as §1

[14] = test system: Mo-T (Other Blood Carcinomas)
Outline: as §1

[15] = test system: NCI-H1838 (Lung Adenocarcinoma)
Outline: as §1

[16] = test system: NCI-H650 (Lung Adenocarcinoma)
Outline: as §1

[17] = test system: SNU-387 (Hepatocellular Carcinoma)
Outline: as §1

[18] = test system: SW982 (Other Solid Carcinomas)
Outline: as §1

Row | SMILES | combination Emax (COLO-679 (Melanoma)) | combination Emax [1] | combination Emax [2] | combination Emax [3] | combination Emax (EW-1 (Ewing's Sarcoma)) | combination Emax [4] | combination Emax [5] | combination Emax [6] | combination Emax [7] | combination Emax [8] | combination Emax [9] | combination Emax [10] | combination Emax [11] | combination Emax [12] | combination Emax [13] | combination Emax [14] | combination Emax [15] | combination Emax [16] | combination Emax [17] | combination Emax [18]
1 | COc1cccc(OCCCN)c1-c1cc(Nc2cnc(C#N)cn2)n[nH]1 [Prexasertib] + C[C@@H]1COCCN1C2=NC(=NC(=C2)C3(CC3)[S@](=N)(=O)C)C4=C5C=CNC5=NC=C4 [AZD6738] (first compound max 1 µM, 7x7, partner max 10 µM) | 0.867 | 0.728 | 0.638 | 0.947 | 0.96 | 0.565 | 1 | 0.383 | 0.834 | 0.555 | 0.977 | 0.485 | 1 | 1 | 1 | 0.571 | 0.689 | 0.647 | 0.537 | 0.723
2 | Cc1c2c(nn1C)CSCc1cc(n(C)n1)CSc1cc(c3ccccc3c1)OCCCc1c(C(=O)O)n(C)c3c-2c(Cl)ccc13 [AZD5991] + C1CN(CCC1(C(=O)N[C@@H](CCO)C2=CC=C(C=C2)Cl)N)C3=NC=NC4=C3C=CN4 [Capivasertib] (first compound max 1 µM, 7x7, partner max 3 µM) | 0.19 | 0.609 | 0.179 | 0.977 | 0.415 | 0.56 | 0.527 | 0.377 | 0.329 | 0.432 | 0.901 | 0.517 | 1 | 0.92 | 1 | 0.281 | 0.306 | 0.209 | 0.345 | 0.192
3 | CN(C)CCCOc1ccc(-c2ccc3ncc4c(c3c2)n(C2CCOCC2)c(=O)n4C)cn1 [AZD0156] + C[C@@H]1COCCN1C2=NC(=NC(=C2)C3(CC3)[S@](=N)(=O)C)C4=C5C=CNC5=NC=C4 [AZD6738] (first compound max 1 µM, 7x7, partner max 10 µM) | 0.749 | 0.668 | 0.549 | 0.894 | 0.93 | 0.493 | 0.988 | 0.298 | 0.848 | 0.575 | 0.927 | 0.343 | 0.967 | 0.97 | 0.992 | 0.481 | 0.745 | 0.226 | 0.553 | 0.723
4 | Cn1cnc2c(F)c(Nc3ccc(Br)cc3Cl)c(C(=O)NOCCO)cc21 [Selumetinib] + CC(C)n1c(=O)n(C)c2cnc3cc(F)c(-c4ccc(OCCCN5CCCCC5)nc4)cc3c21 [AZD1390] (first compound max 10 µM, 7x7, partner max 0.3 µM) | 0.796 | 0.222 | 0.205 | 0.0932 | 0.159 | 0.367 | 0.48 | 0.157 | 0.341 | 0.165 | 0.596 | 0.209 | 0.78 | 0.348 | 0.711 | 0.246 | 0.237 | 0.243 | 0.284 | 0.266
5 | Cc1c2c(nn1C)CSCc1cc(n(C)n1)CSc1cc(c3ccccc3c1)OCCCc1c(C(=O)O)n(C)c3c-2c(Cl)ccc13 [AZD5991] + Cc1cc2ncnn2cc1Nc1ncc2c(n1)n(C1CCOCC1)c(=O)n2C [AZD7648] (first compound max 1 µM, 7x7, partner max 10 µM) | 0.259 | 0.331 | 0.32 | 0.971 | 0.421 | 0.616 | 0.704 | 0.465 | 0.563 | 0.203 | 0.936 | 0.338 | 1 | 0.429 | 1 | 0.262 | 0.259 | 0.203 | 0.393 | 0.371
6 | COc1cccc(OCCCN)c1-c1cc(Nc2cnc(C#N)cn2)n[nH]1 [Prexasertib] + Cc1cc2ncnn2cc1Nc1ncc2c(n1)n(C1CCOCC1)c(=O)n2C [AZD7648] (first compound max 1 µM, 7x7, partner max 10 µM) | 0.902 | 0.794 | 0.656 | 0.941 | 0.962 | 0.588 | 1 | 0.334 | 0.859 | 0.539 | 0.966 | 0.411 | 1 | 1 | 1 | 0.523 | 0.54 | 0.653 | 0.552 | 0.774
7 | Cc1c2c(nn1C)CSCc1cc(n(C)n1)CSc1cc(c3ccccc3c1)OCCCc1c(C(=O)O)n(C)c3c-2c(Cl)ccc13 [AZD5991] + CN(C)CCCOc1ccc(-c2ccc3ncc4c(c3c2)n(C2CCOCC2)c(=O)n4C)cn1 [AZD0156] (first compound max 1 µM, 7x7, partner max 1 µM) | 0.243 | 0.303 | 0.247 | 0.965 | 0.375 | 0.733 | 0.686 | 0.53 | 0.425 | 0.197 | 0.963 | 0.278 | 1 | 0.304 | 1 | 0.229 | 0.464 | 0.272 | 0.376 | 0.258
